Measurements published in publication PMC7582516, “A Novel Series of [1,2,4]Triazolo[4,3-a]Pyridine Sulfonamides as Potential Antimalarial Agents: In Silico Studies, Synthesis and In Vitro Evaluation” (Molecules, 2020).
Values after ≈ are worked out from the molar mass of the structure shown.

How the values were obtained:
[1] = tested on: MRC-5 SV2 cells; experiment: Cytotoxicity assay (resazurin); format: cell-based; conditions: Homo sapiens, MRC-5 fibroblast cytotoxicity, 72 h
Procedure: Stock solutions were prepared in 100% DMSO at 20 mg/mL just prior to screening. […] Reference drugs were either obtained from the fine chemical supplier Sigma or from WHO-TDR. The integrated panel of microbial screens and standard screening methodologies was adopted as previously described. All assays were performed in triplicate at the Laboratory of Microbiology, Parasitology and Hygiene at the University of Antwerp, Belgium. […] The selectivity antiprotozoal potential was assessed by simultaneous evaluation of cytotoxicity on a fibroblast (MRC-5) cell line. […] Cell viability was assessed fluorimetrically after 4 h of addition of resazurin. Fluorescence was measured (excitation 550 nm, emission 590 nm) and the results were expressed as % reduction in cell viability compared to control.

[2] = Solubility in DMSO/Water (practical data); format: physicochemical

SMILES | IC50 [1] | melting point | Solubility [2]
O=S(=O)(c1cccn2cnnc12)N(Cc1cccc(Cl)c1)c1cc(F)cc(F)c1 [Compound 8a, N-(3-chlorobenzyl)-N-(3,5-difluorophenyl)-[1,2,4]triazolo[4,3-a]pyridine-8-sulfonamide] | > 64 µg/mL | 160 to 162 °C | –
Cc1cc(C)cc(N(Cc2cc(C)ccc2C)S(=O)(=O)c2cccn3c(C)nnc23)c1 [Compound 8b, N-(2,5-dimethylbenzyl)-N-(3,5-dimethylphenyl)-3-methyl-[1,2,4]triazolo[4,3-a]pyridine-8-sulfonamide] | 48.5 µg/mL (≈ 112 µM) | – | –
COc1ccc(CN(c2cc(C)cc(C)c2)S(=O)(=O)c2cccn3c(C)nnc23)cc1 [Compound 8c, N-(3,5-dimethylphenyl)-N-(4-methoxybenzyl)-3-methyl-[1,2,4]triazolo[4,3-a]pyridine-8-sulfonamide] | > 64 µg/mL | – | –
COC(=O)c1ccc(CN(c2cccc(C)c2)S(=O)(=O)c2ccc3nnc(C)n3c2)o1 [Compound 8d, Methyl 5-{[3-methyl-N-(3-methylphenyl)-[1,2,4]triazolo[4,3-a]pyridine-6-sulfonamido]methyl}furan-2-carboxylate] | > 64 µg/mL | 152 to 154 °C | –
CCc1nnc2ccc(S(=O)(=O)N(Cc3cccc(F)c3)c3ccc(OC)cc3)cn12 [Compound 8e, 3-Ethyl-N-(3-fluorobenzyl)-N-(4-methoxyphenyl)-[1,2,4]triazolo[4,3-a]pyridine-6-sulfonamide] | 18.2 µg/mL (≈ 41.3 µM) | – | moderately soluble
Cc1cccc(CN(c2ccc(F)cc2)S(=O)(=O)c2ccc3nnc(C)n3c2)c1 [Compound 8f, N-(4-fluorophenyl)-3-methyl-N-(3-methylbenzyl)-[1,2,4]triazolo[4,3-a]pyridine-6-sulfonamide] | > 64 µg/mL | 104 to 105 °C | –
Cc1nnc2ccc(S(=O)(=O)N(Cc3cccc(Cl)c3)c3ccc(F)cc3)cn12 [Compound 8g, N-(3-chlorobenzyl)-N-(4-fluorophenyl)-3-methyl-[1,2,4]triazolo[4,3-a]pyridine-6-sulfonamide] | > 64 µg/mL | 107 to 109 °C | –
Cc1nnc2ccc(S(=O)(=O)N(Cc3ccccc3F)c3cccc(Cl)c3)cn12 [Compound 8h, N-(3-chlorophenyl)-N-(2-fluorobenzyl)-3-methyl-[1,2,4]triazolo[4,3-a]pyridine-6-sulfonamide] | > 64 µg/mL | – | –
Cc1nnc2ccc(S(=O)(=O)N(Cc3ccc(F)cc3)c3ccc(Cl)cc3)cn12 [Compound 8i, N-(4-chlorophenyl)-N-(4-fluorobenzyl)-3-methyl-[1,2,4]triazolo[4,3-a]pyridine-6-sulfonamide] | > 64 µg/mL | 198 to 199 °C | –
O=c1n(Cc2cccc(Cl)c2)nc2c(S(=O)(=O)N3CCCCC3)cccn12 [Compound 13a, 2-(3-Chlorobenzyl)-8-(piperidin-1-ylsulfonyl)-[1,2,4]triazolo[4,3-a]pyridin-3(2H)-one] | > 64 µg/mL | – | moderately soluble
O=c1n(Cc2ccc3c(c2)OCO3)nc2c(S(=O)(=O)N3CCCCC3)cccn12 [Compound 13b, 2-(Benzo[d][1,3]dioxol-5-ylmethyl)-8-(piperidin-1-ylsulfonyl)-[1,2,4]triazolo[4,3-a]pyridin-3(2H)-one] | > 64 µg/mL | 160 to 161 °C | –
O=c1n(Cc2cc(F)cc(F)c2)nc2c(S(=O)(=O)N3CCCCC3)cccn12 [Compound 13c, 2-(3,5-Difluorobenzyl)-8-(piperidin-1-ylsulfonyl)-[1,2,4]triazolo[4,3-a]pyridin-3(2H)-one] | > 64 µg/mL | 221 to 222 °C | –
O=c1n(Cc2ccccc2Cl)nc2c(S(=O)(=O)N3CCOCC3)cccn12 [Compound 13d, 2-(2-Chlorobenzyl)-8-(morpholinosulfonyl)-[1,2,4]triazolo[4,3-a]pyridin-3(2H)-one] | > 64 µg/mL | – | –
O=C1CCCN1c1ccc(Cn2nc3c(S(=O)(=O)N4CCOCC4)cccn3c2=O)cc1 [Compound 13e, 8-(Morpholinosulfonyl)-2-[4-(2-oxopyrrolidin-1-yl)benzyl]-[1,2,4]triazolo[4,3-a]pyridin-3(2H)-one] | > 64 µg/mL | 258 to 260 °C (dec.) | –
O=c1n(Cc2ccc(Cl)cc2)nc2ccc(S(=O)(=O)N3CCCCC3)cn12 [Compound 13f, 2-(4-Chlorobenzyl)-6-(piperidin-1-ylsulfonyl)-[1,2,4]triazolo[4,3-a]pyridin-3(2H)-one] | > 64 µg/mL | 173 to 174 °C | –
Cc1cccc(Cn2nc3ccc(S(=O)(=O)N4CCC(C)CC4)cn3c2=O)c1 [Compound 13g, 2-(3-Methylbenzyl)-6-(4-methylpiperidin-1-ylsulfonyl)-[1,2,4]triazolo[4,3-a]pyridin-3(2H)-one] | > 64 µg/mL | 145 to 146 °C | –
CC1CCN(S(=O)(=O)c2ccc3nn(Cc4ccccc4F)c(=O)n3c2)CC1 [Compound 13h, 2-(2-Fluorobenzyl)-6-(4-methylpiperidin-1-ylsulfonyl)-[1,2,4]triazolo[4,3-a]pyridin-3(2H)-one] | > 64 µg/mL | 150 to 151 °C | –
O=c1n(Cc2cccc(F)c2)nc2ccc(S(=O)(=O)N3CCSCC3)cn12 [Compound 13i, 2-(3-Fluorobenzyl)-6-(thiomorpholinosulfonyl)-[1,2,4]triazolo[4,3-a]pyridin-3(2H)-one] | > 64 µg/mL | 154 to 155 °C | –
O=c1n(Cc2ccc(F)cc2Cl)nc2ccc(S(=O)(=O)N3CCSCC3)cn12 [Compound 13j, 2-(2-Chloro-4-fluorobenzyl)-6-(thiomorpholinosulfonyl)-[1,2,4]triazolo[4,3-a]pyridin-3(2H)-one] | > 64 µg/mL | 190 to 191 °C | –
COc1ccc(CSc2nnc3c(S(=O)(=O)N4CCCCC4)cccn23)cc1 [Compound 15a, 3-(4-Methoxybenzylthio)-8-(piperidin-1-ylsulfonyl)-[1,2,4]triazolo[4,3-a]pyridine] | > 64 µg/mL | 169 to 170 °C | –
O=S(=O)(c1cccn2c(SCc3cccc(Br)c3)nnc12)N1CCCCC1 [Compound 15b, 3-(3-Bromobenzylthio)-8-(piperidin-1-ylsulfonyl)-[1,2,4]triazolo[4,3-a]pyridine] | > 64 µg/mL | 160 to 162 °C | –
Cc1ccc(CSc2nnc3c(S(=O)(=O)N4CCCCC4)cccn23)cc1 [Compound 15c, 3-(4-Methylbenzylthio)-8-(piperidin-1-ylsulfonyl)-[1,2,4]triazolo[4,3-a]pyridine] | > 64 µg/mL | 155 to 156 °C | –
O=S(=O)(c1cccn2c(SCc3cccc(Cl)c3)nnc12)N1CCCC1 [Compound 15d, 3-(3-Chlorobenzylthio)-8-(pyrrolidin-1-ylsulfonyl)-[1,2,4]triazolo[4,3-a]pyridine] | > 64 µg/mL | 143 to 145 °C | –
O=S(=O)(c1cccn2c(SCc3ccccc3Cl)nnc12)N1CCCC1 [Compound 15e, 3-(2-Chlorobenzylthio)-8-(pyrrolidin-1-ylsulfonyl)-[1,2,4]triazolo[4,3-a]pyridine] | > 64 µg/mL | 164 to 166 °C | –
O=S(=O)(c1cccn2c(SCc3ccc(F)cc3)nnc12)N1CCCc2ccccc21 [Compound 15f, 1-(3-(4-Fluorobenzylthio)-[1,2,4]triazolo[4,3-a]pyridin-8-ylsulfonyl)-1,2,3,4-tetrahydroquinoline] | > 64 µg/mL | 113 to 115 °C | –
